Source: patent US9840509B2, “Heterocyclic compounds” (CADILA HEALTHCARE LIMITED, priority 2014, dated 2017)

Columns and labels:
CYP 2C9 = target: T1, CYP 2C9 (Homo sapiens, UniProt P11712); experiment: CYP inhibition in human liver microsomes, 2C9; format: in vitro ADME; details: pH 7.4, @ 10 μM concn
T1 construct: from tissue; host or cells: human liver microsomes
Method: (§1) CYP Inhibition Studies: CYP inhibition studies were performed with test compounds, at two concentrations ([…] and 10 μM), using human liver microsomes (Yao, M., Zhu, M., Sinz, M. W., Zhang, H., Humphreys, W. F., Rodrigues, A. D and Dai, R., Journal of Pharmaceutical and Biomedical Analysis, 2007, 44, 211-223; Walsky, R. L and Obach, R. S., Drug Metab. Dispos., 2004, 32, 647-660). Human liver microsomes were mixed with 100 mM phosphate buffer (pH 7.4) and probe substrate and warmed to […] in microcentrifuge tubes. Aliquots of this mixture (499 μL) were transferred to each pre-labeled microcentrifuge tubes, followed by addition of the 1 μL of inhibitors (test compound/CYP-specific positive control inhibitor) or control solvent (DMSO). Aliquots of this mixture (90 μL) were transferred to each pre-labeled microcentrifuge tubes in duplicate. Final solvent concentrations were 0.2% (v/v) or less. Incubations were commenced with the addition of 10 μL NADPH stock (assay concentration, 1 mM) to a final incubation volume of 100 μL and incubated in shaking water bath (at 37° C. and 100 rpm), for the period defined in Tables 1. Incubations were terminated by addition of 400 μL of termination solvent (CH3CN) containing internal standard. The terminated samples were vortex-mixed, centrifuged at 10000 rpm for 5 min and supernatant transferred into HPLC vials for LC-MS/MS analysis to monitor metabolites produced by marker CYP reactions. […] Animals

CYP 1A2 = target: T2, CYP 1A2 (Homo sapiens, UniProt P05177); experiment: CYP inhibition in human liver microsomes, 1A2; format: in vitro ADME; details: pH 7.4, @ 10 μM concn
T2 construct: from tissue; host or cells: human liver microsomes
T2 sequence (P05177 1-516): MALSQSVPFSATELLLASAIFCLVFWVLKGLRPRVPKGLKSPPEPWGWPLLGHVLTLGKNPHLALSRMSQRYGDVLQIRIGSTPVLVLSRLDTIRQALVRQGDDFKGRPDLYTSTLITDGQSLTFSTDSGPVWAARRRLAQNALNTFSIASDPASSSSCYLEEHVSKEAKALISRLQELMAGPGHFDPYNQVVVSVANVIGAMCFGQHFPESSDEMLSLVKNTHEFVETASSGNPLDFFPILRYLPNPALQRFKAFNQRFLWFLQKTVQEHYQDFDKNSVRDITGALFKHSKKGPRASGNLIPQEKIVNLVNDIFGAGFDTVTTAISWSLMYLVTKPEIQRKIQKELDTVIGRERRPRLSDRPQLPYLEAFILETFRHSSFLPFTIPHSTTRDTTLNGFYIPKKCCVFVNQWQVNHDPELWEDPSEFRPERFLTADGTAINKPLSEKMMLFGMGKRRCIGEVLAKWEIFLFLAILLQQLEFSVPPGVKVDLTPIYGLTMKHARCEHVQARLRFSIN
Method: as §1

CYP 2C19 = target: T3, CYP 2C19 (Homo sapiens, UniProt P33261); experiment: CYP inhibition in human liver microsomes, 2C19; format: in vitro ADME; details: pH 7.4, @ 10 μM concn
T3 construct: from tissue; host or cells: human liver microsomes
T3 sequence (P33261 whole entry): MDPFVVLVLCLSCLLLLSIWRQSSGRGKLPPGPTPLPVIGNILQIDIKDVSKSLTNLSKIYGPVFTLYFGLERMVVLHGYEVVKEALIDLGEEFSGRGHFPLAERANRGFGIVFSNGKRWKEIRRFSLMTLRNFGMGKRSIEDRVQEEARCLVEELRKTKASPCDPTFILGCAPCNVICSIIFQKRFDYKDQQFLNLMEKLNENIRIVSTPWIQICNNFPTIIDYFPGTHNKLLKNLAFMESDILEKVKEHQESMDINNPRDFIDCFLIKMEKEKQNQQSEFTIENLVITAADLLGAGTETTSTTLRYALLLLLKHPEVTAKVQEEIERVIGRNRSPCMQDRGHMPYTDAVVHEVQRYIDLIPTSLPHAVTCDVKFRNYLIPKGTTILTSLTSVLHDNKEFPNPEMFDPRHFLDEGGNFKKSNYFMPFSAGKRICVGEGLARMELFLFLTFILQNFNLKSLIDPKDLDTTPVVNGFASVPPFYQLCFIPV
Method: as §1

[1] = target: T4, recombinant purified human BTK (Homo sapiens, UniProt Q06187); experiment: In vitro BTK kinase assay on ADP Glo platform; format: biochemical; details: 2 hr room temperature, read-out: In-vitro BTK inhibitory activity: IC50
T4 construct: purchased SignalChem, USA
T4 sequence (Q06187 whole entry): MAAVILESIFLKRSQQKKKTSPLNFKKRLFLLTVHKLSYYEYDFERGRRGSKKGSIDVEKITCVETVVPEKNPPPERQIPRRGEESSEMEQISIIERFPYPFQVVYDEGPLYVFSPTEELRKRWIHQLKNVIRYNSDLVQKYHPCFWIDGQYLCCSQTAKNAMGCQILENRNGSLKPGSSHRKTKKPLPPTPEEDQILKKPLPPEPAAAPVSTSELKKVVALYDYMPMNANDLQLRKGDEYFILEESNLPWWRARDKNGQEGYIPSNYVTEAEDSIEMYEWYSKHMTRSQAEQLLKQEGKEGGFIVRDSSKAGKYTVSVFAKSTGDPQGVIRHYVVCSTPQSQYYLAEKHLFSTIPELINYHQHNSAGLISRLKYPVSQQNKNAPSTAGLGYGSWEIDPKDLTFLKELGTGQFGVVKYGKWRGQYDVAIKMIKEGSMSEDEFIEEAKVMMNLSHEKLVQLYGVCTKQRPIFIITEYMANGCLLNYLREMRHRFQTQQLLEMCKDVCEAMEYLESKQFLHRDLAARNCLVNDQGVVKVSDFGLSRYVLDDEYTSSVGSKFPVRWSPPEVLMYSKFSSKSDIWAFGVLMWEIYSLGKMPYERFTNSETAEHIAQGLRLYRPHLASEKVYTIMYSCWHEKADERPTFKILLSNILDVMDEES
Method: Testing of Compounds of the Invention Biological Studies: In vitro BTK Inhibitory Activity Assay:
In vitro BTK inhibitory activity of test compounds were screened using BTK kinase assay on ADP Glo platform (Li, H., Totoritis, R. D., Lor, L. A., Schwartz, B., Caprioli, P., Jurewicz, A. J and Zhang, G., Assay Drug Dev. Technol., 2009, 7(6), 598-605). Briefly, fixed amount of recombinant purified human BTK (3 ng/reaction from SignalChem, USA) were incubated with increasing concentration of test compounds, in 1× kinase reaction buffer (40 mM Tris-Cl, pH7.5, 20 mM MgCl2, 2 mM MnCl2, 0.1 mg/ml BSA and 50 μM DTT). Enzymatic reaction was initiated by adding a substrate cocktail containing 50 µM of ATP (final concentration) and […] of polyGln4Tyr1 (Signal Chem) in total 25 μl of reaction, in round bottom white 96 well plate. The reaction mixture was incubated at room temperature for 2 hr. After 2 hr of incubation, 10 μl of the reaction mix was mixed with […] of ADP Glo reagent, in another round bottom white 96 well plate and incubated at room temperature for 40 min. This was followed by addition of kinase detection reagent (20 μl per reaction) and incubation at room temperature for 30 min. Finally, plate was read for luminescence at an integration time of 500 millisecond per well. Data were plotted taking Enzyme with no inhibitor set as the 100% kinase activity and for dose response curve, % Kinase activity was plotted against conc on Log scale and IC50 was determined by non linear curve fitting method using GraphPad Prism software 6. The in vitro BTK inhibitory activity (IC50) for representative compounds are listed in […]

CYP 2C8 = target: T5, CYP 2C8 (Homo sapiens, UniProt P10632); experiment: CYP inhibition in human liver microsomes, 2C8; format: in vitro ADME; details: pH 7.4, @ 10 μM concn
T5 construct: from tissue; host or cells: human liver microsomes
T5 sequence (P10632 1-490): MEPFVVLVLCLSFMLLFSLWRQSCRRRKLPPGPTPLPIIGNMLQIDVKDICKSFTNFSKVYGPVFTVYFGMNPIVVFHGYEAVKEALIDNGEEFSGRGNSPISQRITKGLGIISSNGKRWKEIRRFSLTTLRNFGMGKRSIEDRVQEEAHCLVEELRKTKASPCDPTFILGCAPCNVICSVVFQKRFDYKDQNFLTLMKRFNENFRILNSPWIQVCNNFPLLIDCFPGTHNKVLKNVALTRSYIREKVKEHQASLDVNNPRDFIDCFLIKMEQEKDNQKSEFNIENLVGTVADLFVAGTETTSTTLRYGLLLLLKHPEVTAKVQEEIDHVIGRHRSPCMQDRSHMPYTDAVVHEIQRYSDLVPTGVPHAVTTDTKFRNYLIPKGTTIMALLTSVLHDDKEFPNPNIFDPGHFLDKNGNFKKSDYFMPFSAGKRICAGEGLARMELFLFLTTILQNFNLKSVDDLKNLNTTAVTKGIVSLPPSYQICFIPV
Method: as §1

CYP 2D6 = target: T6, CYP 2D6 (Homo sapiens, UniProt P10635); experiment: CYP inhibition in human liver microsomes, 2D6; format: in vitro ADME; details: pH 7.4, @ 10 μM concn
T6 construct: from tissue; host or cells: human liver microsomes
T6 sequence (P10635 whole entry): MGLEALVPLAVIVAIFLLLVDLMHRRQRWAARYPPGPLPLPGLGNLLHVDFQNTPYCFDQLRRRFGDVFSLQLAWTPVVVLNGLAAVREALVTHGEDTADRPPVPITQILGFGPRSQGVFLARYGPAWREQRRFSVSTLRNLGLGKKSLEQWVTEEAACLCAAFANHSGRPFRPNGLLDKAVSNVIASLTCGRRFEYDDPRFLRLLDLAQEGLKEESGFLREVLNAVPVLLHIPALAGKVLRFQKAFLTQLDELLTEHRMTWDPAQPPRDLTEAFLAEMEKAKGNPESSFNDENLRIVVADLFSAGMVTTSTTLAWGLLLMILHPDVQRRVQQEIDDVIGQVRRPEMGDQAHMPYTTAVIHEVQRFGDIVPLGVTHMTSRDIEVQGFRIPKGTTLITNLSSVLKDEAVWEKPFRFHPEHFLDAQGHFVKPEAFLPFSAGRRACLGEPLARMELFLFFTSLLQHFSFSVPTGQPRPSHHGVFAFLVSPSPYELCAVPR
Method: as §1

CYP 3A4 = target: T7, CYP 3A4 (Homo sapiens, UniProt P08684); experiment: CYP inhibition in human liver microsomes, 3A4; format: in vitro ADME; details: pH 7.4, @ 10 μM concn
T7 construct: from tissue; host or cells: human liver microsomes
T7 sequence (P08684 whole entry): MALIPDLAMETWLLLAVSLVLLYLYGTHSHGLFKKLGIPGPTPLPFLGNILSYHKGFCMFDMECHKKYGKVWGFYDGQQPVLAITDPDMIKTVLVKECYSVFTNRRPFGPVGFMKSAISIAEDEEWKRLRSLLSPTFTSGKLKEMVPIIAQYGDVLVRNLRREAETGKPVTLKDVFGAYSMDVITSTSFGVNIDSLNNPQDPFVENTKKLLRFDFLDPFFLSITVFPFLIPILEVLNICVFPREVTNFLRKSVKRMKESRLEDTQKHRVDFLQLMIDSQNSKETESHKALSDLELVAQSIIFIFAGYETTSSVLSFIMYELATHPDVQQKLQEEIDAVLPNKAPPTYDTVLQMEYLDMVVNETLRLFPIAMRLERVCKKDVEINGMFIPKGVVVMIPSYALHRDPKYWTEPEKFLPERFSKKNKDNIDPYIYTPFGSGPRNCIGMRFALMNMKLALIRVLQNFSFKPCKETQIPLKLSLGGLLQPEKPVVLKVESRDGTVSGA
Method: as §1

T1 sequence (P11712 whole entry): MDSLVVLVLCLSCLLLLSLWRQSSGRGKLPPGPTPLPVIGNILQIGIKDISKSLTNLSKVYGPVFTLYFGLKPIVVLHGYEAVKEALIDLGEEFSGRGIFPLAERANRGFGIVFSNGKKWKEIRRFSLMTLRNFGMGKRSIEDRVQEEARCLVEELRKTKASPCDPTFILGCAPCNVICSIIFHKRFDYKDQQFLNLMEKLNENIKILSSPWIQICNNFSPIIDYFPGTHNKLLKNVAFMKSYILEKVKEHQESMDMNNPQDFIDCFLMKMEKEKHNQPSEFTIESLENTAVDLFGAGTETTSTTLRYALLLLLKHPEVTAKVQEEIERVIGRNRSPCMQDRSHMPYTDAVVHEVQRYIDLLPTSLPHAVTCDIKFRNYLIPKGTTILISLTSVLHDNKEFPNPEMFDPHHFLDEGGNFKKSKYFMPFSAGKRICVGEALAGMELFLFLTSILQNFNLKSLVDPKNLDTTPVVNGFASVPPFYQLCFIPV

Compound | inhibition at 10 μM (CYP 2C9) [%] | inhibition at 10 μM (CYP 1A2) [%] | inhibition at 10 μM (CYP 2C19) [%] | IC50 [1] [nM] | inhibition at 10 μM (CYP 2C8) [%] | inhibition at 10 μM (CYP 2D6) [%] | inhibition at 10 μM (CYP 3A4) [%]
C=CC(=O)N1CC2CC(n3nc(-c4ccc(C(=O)Nc5cc(C)ccn5)cc4)c4c(N)ncnc43)CC2C1 (centres unmarked) [Compound 30, 4-(1-(2-acryloyloctahydrocyclopenta[c]pyrrol-5-yl)-4-amino-1H-pyrazolo[3,4-d]pyrimidin-3-yl)-N-(4-methylpyridin-2-yl)benzamide] | < 50 | < 50 | < 50 | 6 | < 50 | < 50 | < 50
C=CC(=O)N1CC2CC(n3nc(-c4ccc(-c5nnc(-c6ccccn6)s5)cc4)c4c(N)ncnc43)CC2C1 (centres unmarked) [Compound 39, 1-(5-(4-amino-3-(4-(5-(pyridin-2-yl)-1,3,4-thiadiazol-2-yl)phenyl)-1H-pyrazolo [3,4-d]pyrimidin-1-yl)hexahydrocyclopenta[c]pyrrol-2(1H)-yl)prop-2-en-1-one] | < 50 | < 50 | < 50 | 1.4 | < 50 | < 50 | < 50
C=CC(=O)N1CC2CC(n3cc(-c4ccc(Oc5ccccc5)cc4)c4c(N)ncnc43)CC2C1 (centres unmarked) [Compound 31, 1-(5-(4-amino-5-(4-phenoxyphenyl)-7H-pyrrolo[2,3-d]pyrimidin-7-yl)hexahydrocyclopenta[c]pyrrol-2(1H)-yl)prop-2-en-1-one] | < 50 | < 50 | < 50 | 0.6 | < 50 | < 50 | < 50
C=CC(=O)N1CC2CC(n3nc(-c4ccc5c(c4)OC(F)(F)O5)c4c(N)ncnc43)CC2C1 (centres unmarked) [Compound 36, 1-(5-(4-amino-3-(2,2-difluorobenzo[d] [1,3]dioxol-5-yl)-1H-pyrazolo [3,4-d]pyrimidin-1-yl)hexahydrocyclopenta[c]pyrrol-2(1H)-yl)prop-2-en-1-one] | < 50 | < 50 | < 50 | 1.1 | < 50 | < 50 | < 50
C=CC(=O)N1CC2CC(n3nc(-c4ccc(NC(=O)c5ccccc5)cc4)c4c(N)ncnc43)CC2C1 (centres unmarked) [Compound 38, N-(4-(1-(2-acryloyloctahydrocyclopenta[c]pyrrol-5-yl)-4-amino-1H-pyrazolo[3,4-d]pyrimidin-3-yl)phenyl)benzamide] | < 50 | < 50 | < 50 | 17 | < 50 | > 50 | < 50
C=CC(=O)N1CC2CC(n3nc(-c4ccc5sccc5c4)c4c(N)ncnc43)CC2C1 (centres unmarked) [Compound 6, 1-(5-(4-amino-3-(benzo[b]thiophen-5-yl)-1H-pyrazolo[3,4-d]pyrimidin-1-yl)hexahydrocyclopenta[c]pyrrol-2(1H)-yl)prop-2-en-1-one] | < 50 | < 50 | < 50 | 1.7 | < 50 | < 50 | < 50

Continued by falling IC50 [1], values first:

inhibition at 10 μM (CYP 2C9) [%] | inhibition at 10 μM (CYP 1A2) [%] | inhibition at 10 μM (CYP 2C19) [%] | IC50 [1] [nM] | inhibition at 10 μM (CYP 2C8) [%] | inhibition at 10 μM (CYP 2D6) [%] | inhibition at 10 μM (CYP 3A4) [%] | Compound
> 50 | < 50 | < 50 | 223 | > 50 | < 50 | > 50 | C=CC(=O)N1CC2CC(n3nc(-c4ccc5nc(Oc6ccccc6)sc5c4)c4c(N)ncnc43)CC2C1 (centres unmarked) [Compound 20, 1-(5-(4-amino-3-(2-phenoxybenzo[d]thiazol-6-yl)-1H-pyrazolo [3,4-d]pyrimidin-1-yl)hexahydrocyclopenta[c]pyrrol-2(1H)-yl)prop-2-en-1-one]
– | – | – | 50 | – | – | – | CN(C)C/C=C/C(=O)N1CC2CC(n3nc(-c4ccc(Oc5ccccc5)cc4)c4c(N)ncnc43)CC2C1 (centres unmarked) [Compound 48, (E)-1-(5-(4-amino-3-(4-phenoxyphenyl)-1H-pyrazolo[3,4-d]pyrimidin-1-yl)hexahydrocyclopenta[c]pyrrol-2(1H)-yl)-4-(dimethylamino)but-2-en-1-one]
< 50 | > 50 | < 50 | 10 | < 50 | < 50 | < 50 | Cc1ccnc(NC(=O)c2ccc(-c3nn(C4CC5CN(C(=O)/C=C/CN(C)C)CC5C4)c4ncnc(N)c34)cc2)c1 (centres unmarked) [Compound 45, (E)-4-(4-amino-1-(2-(4-(dimethylamino)but-2-enoyl)octahydrocyclopenta[c]pyrrol-5-yl)-1H-pyrazolo[3,4-d]pyrimidin-3-yl)-N-(4-methylpyridin-2-yl) benzamide]
> 50 | > 50 | < 50 | 6 | < 50 | < 50 | < 50 | C=CC(=O)N1CC2CC(n3nc(-c4ccc(C(=O)Nc5cc(C(F)(F)F)ccn5)cc4)c4c(N)ncnc43)CC2C1 (centres unmarked) [Compound 40, 4-(1-(2-acryloyloctahydrocyclopenta[c]pyrrol-5-yl)-4-amino-1H-pyrazolo[3,4-d]pyrimidin-3-yl)-N-(4-(trifluoromethyl)pyridin-2-yl)benzamide]
< 50 | < 50 | < 50 | 2 | < 50 | < 50 | < 50 | C=CC(=O)N1CC2CN(CCn3nc(-c4ccc(Oc5ccccc5)cc4)c4c(N)ncnc43)CC2C1 (centres unmarked) [Compound 4, 1-(5-(2-(4-amino-3-(4-phenoxyphenyl)-1H-pyrazolo[3,4-d]pyrimidin-1-yl)ethyl)hexahydropyrrolo[3,4-c]pyrrol-2(1H)-yl)prop-2-en-1-one]
